{
  "source": "patent US20040192581A1",
  "about": "“Topical anti-infective formulations” (priority 2002, published 2004)",
  "system": "S. aureus",
  "assay": "In vitro efficacy of nisin cream versus nisin in PBS, viable cell count",
  "format": "cell-based",
  "conditions": "37° C. for 60 minutes",
  "procedure": "A topical cream (100 g) was prepared by heating the waxes and oils to about 70° C. Nisin in an aqueous solution was added after the cream had cooled to room temperature. The following ingredients were mixed in a 250 mL glass beaker until a homogenous compound was formed:\nTo test the anti-infective activity of the nisin-based cream, and to compare this activity to that of the same concentration of nisin in PBS, 20 μL of a suspension of 9×10^8 CFU/mL S. aureus was added to 1 g of cream and 1 mL of PBS at the nisin concentrations indicated in Table I. The samples were vortexed to mix and incubated at 37° C. for 60 minutes. 1 mL of mineral oil was added to the cream to facilitate pipetting and then serial dilutions were plated for enumeration of viable cells. The data in Table I show the viable cells for each nisin concentration.",
  "data": [
    {"substance": "Nisin", "values": [
      {"measurement": "viable cells, PBS", "setting": "nisin 0.5 μg/ml in PBS", "result": "TNTC"},
      {"measurement": "viable cells, Cream", "setting": "nisin 0.5 μg/ml in cream", "result": 1082, "unit": "cfu/ml"},
      {"measurement": "viable cells, PBS", "setting": "nisin 2.5 μg/ml in PBS", "result": "TNTC"},
      {"measurement": "viable cells, Cream", "setting": "nisin 2.5 μg/ml in cream", "result": 140, "unit": "cfu/ml"},
      {"measurement": "viable cells, PBS", "setting": "nisin 12.5 μg/ml in PBS", "result": 482, "unit": "cfu/ml"},
      {"measurement": "viable cells, Cream", "setting": "nisin 12.5 μg/ml in cream", "result": 12, "unit": "cfu/ml"}
    ]}
  ]
}
